# Reference: patent US5912235A, “10, 13, 15-trioxatricyclo [9.2.1.1.^9.6 ]-pentadecan one derivatives, method for their production and pharmaceutical compositions containing them” (Solvay Pharmaceuticals GmbH, priority 1996, dated 1999)
# Experiments:
# [1] = tested on: stomach tone; assay: In vivo determination of the effect of the substances on the stomach tone (barostat, stomach volume at constant pressure after lipid intake); conditions: beagles; maximum tolerable dose; stomach volume measured at constant pressure with barostat
# Method: 2. In vivo determination of the effect of the substances on the stomach tone.
# The stomach tone plays an important role in gastric emptying. An increased stomach tone contributes to an increased rate of gastric emptying.
# The influence of substances on the stomach tone is determined on beagles with the aid of a barostat which is connected to a plastic pouch in the stomach of the dog and permits measurement of volume or pressure in the stomach of the dog. With the barostat, the stomach volume is determined at a constant pressure in the stomach or the stomach pressure is determined at a constant volume in the stomach. When the stomach tone increases, a reduced stomach volume is detected at a given pressure, and an increased pressure at a given volume. In the test model used to investigate the increase in stomach tone effected by the substances, the change in stomach volume caused by the substances is measured at constant pressure. The stomach of the test animals is relaxed by intake of lipids, i.e. the stomach tone decreases, which causes the stomach volume to increase correspondingly. The reduction in % of the stomach volume which has been increased by administration of lipids which occurs after intake of the substance due to a re-increase in stomach tone is measured as a measurement of the stomach tone-increasing action of the substances.
# [2] = target: T1, motilin receptors (Oryctolagus cuniculus, UniProt G1T803); assay: Determination of the binding capacity of the test substances to motilin receptors (displacement of 125-iodine-labelled motilin, crude membrane preparation from rabbit antrum); conditions: tissue homogenate fraction from rabbit antrum; iodinated motilin 50 pM; 30° C., 60 min; read-out: pIC50 value (50% inhibition of the specific binding of the iodinated motilin to the motilin receptors) (converted)
# T1 construct: fraction of a tissue homogenate from rabbit antrum; from tissue; host or cells: rabbit antrum, mucosa removed, crude membrane preparation
# T1 sequence (G1T803 1-400): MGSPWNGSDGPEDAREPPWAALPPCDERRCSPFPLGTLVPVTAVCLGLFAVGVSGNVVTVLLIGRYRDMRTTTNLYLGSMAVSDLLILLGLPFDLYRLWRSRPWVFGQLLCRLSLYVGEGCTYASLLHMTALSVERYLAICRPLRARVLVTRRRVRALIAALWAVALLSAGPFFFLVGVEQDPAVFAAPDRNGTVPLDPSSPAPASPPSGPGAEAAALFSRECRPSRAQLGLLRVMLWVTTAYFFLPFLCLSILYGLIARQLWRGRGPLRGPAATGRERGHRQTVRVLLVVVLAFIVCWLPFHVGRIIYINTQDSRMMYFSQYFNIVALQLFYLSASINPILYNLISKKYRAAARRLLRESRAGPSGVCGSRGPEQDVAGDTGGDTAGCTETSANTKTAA
# Method: 1. Determination of the binding capacity of the test substances to motilin receptors.
# The affinity of the compounds of Formula I for motilin receptors is measured in vitro on a fraction of a tissue homogenate from rabbit antrum. The displacement of radioactively labelled iodinated motilin from motilin receptor binding by the test substances is determined.
# The receptor binding studies are carried out by a modification of the method of Borman et al. (Regulatory Peptides, 15:143-153 (1986). To prepare the ^125 iodine-labelled motilin, motilin is iodinated enzymatically using lactoperoxidase in known manner, for example in analogy to the method described by Bloom et al., Scand. J. Gastroenterol.,11:47-52 (1976). […]
# For the binding test, 200 μl of the crude membrane fraction (0.5-1 mg of protein) in 400 μl of a buffer solution A (50 mM tris-HCl buffer, 1.5% BSA, 10 mM MgCl2, pH 8.0) are incubated with 100 μl of iodinated motilin diluted in buffer solution B (10 mM tris-HCl buffer, 1% BSA, pH 8) (final concentration 50 pM) at 30° C. for 60 min. […] The residue obtained as pellet after the centrifugation is washed with buffer solution B and counted in a gamma counter. […] From this the corresponding pIC50 value is calculated.
structure (smiles),measurement,setting,value
"CC[C@@H](O)[C@@]1(C)O[C@]23O[C@](C)(CC2C)[C@H](O[C@@H]2O[C@H](C)C[C@H](N(C)C(C)C)[C@H]2O)[C@@H](C)[C@H](O[C@H]2C[C@@](C)(OC)[C@@H](O)[C@H](C)O2)[C@@H](C)C(=O)O[C@@H]1[C@H]3C (stereo partly drawn) [Example 1, [(1'R),2R,3S,4S,5R,6R,9R,11R,12R,14R]-11-(1'-hydroxypropyl)-3-[(2,6-dideoxy-3-C-methyl-3-0-methyl-α-L-ribohexopyranosyl)-oxy]-5-[(3,4,6-trideoxy-3-(N-methyl-N-isopropylamino)-β-D-xylo-hexopyranosyl)-oxy]-2,4,6,8,11,14-hexamethyl-10,13,15-trioxatricyclo[9.2.1.1^9.6]-pentadecan-1-one]",reduction in the stomach volume increased after lipid administration,[1],69%
same,IC50,[2],14.1 nM
